Assay results as given in patent publication US8188070B2, “Method of treating neurological diseases and disorders” (The Trustees of the University of Pennsylvania, priority 2002, dated 2012).

Legend:
S5 cells [1] = assay: High throughput screen: ATP level (viable cells) in S5 cells with reduced SMN; format: cell-based, chicken; conditions: for EC50 / Emax: Gallus gallus, S5 cells, 18 ng/ml tet, 0.5 to 20 μM; for EC50: ATP level, read-out: EC50 (effective concentration for half maximum activity); for Emax: percentage increase of ATP level relative to cells treated with DMSO only, read-out: Maximum Activity (%)
Protocol: In the SMN conditional knockout cell line, S5, the endogenous smn gene is disrupted by homologous recombination, and the SMN protein is stably expressed from an SMN cDNA under the control of a tetracycline (tet)-repressible promoter (Wang and Dreyfuss (2001) supra).
Libraries of compounds were screened against the S5 cell line. […] The cells were incubated for an additional 72 hours and the number of viable cells in each well was determined by measuring the ATP level in the cell lysate, a sensitive assay commonly used to assess cell viability in HTS (Crouch, et al. (1993) J. Immunol. Methods 160:81-88). […] Activity of the compounds was measured as the difference between the sample and the average of the controls.
(§1) The activities of all compounds were further examined at concentrations ranging from 0.5 to 20 μM. […] The activity of each compound was determined as a percentage increase of the ATP level, reflecting the number of viable cells, relative to cells treated with an equal volume of DMSO only.
The chicken pre-B cell line DT40, the smn conditional knockout cell line S5 and the asf/sf2 conditional knockout cell line ASF-DT40 (Wang, et al. (1996) supra) were maintained using known methods (Wang and Dreyfuss (2001) supra). To reduce the SMN level, S5 cells were incubated with 18 ng/ml tetracycline hydrochloride (tet). Similarly, ASF-DT40 cells were treated with 14 ng/ml tet to partially deplete the ASF/SF2 protein.
After being incubated in medium containing 18 ng/ml tet for 24 hours, S5 cells were dispensed into 96-well plates at 120 μl per well. Compounds were added to these cells by pipetting 0.4 μl of the 3 mM libraries into each well to reach a final concentration of 10 μM. The 96-well plates were further incubated for 72 hours at 37° C. with 5% CO2. […] Luminescence was read on a Wallac Victor2 multi-channel plate reader (Perkin-Elmer, Boston, Mass.). The cellular ATP level is a direct measure of the number of viable cells in each well (Crouch, et al. (1993) supra). Data from luminescence readings were analyzed with MICROSOFT® Excel.

S5 cells [2] = conditions: for highest concentration at which there is no apparent cell toxicity: S5 cells
Protocol: as §1
SMN protein levels were also determined. Total cell lysates from treated cells were prepared and analyzed by immunoblotting with an anti-SMN antibody. […] The same blots were probed with antibodies against two other abundant proteins, Y14^10 and β-tubulin, to provide an internal control for the amount of cell lysate loaded on the gel.

S5 cells [3] = assay: Cell number determination in S5 cells cultured with 18 ng/ml tet; format: cell-based, chicken; conditions: after 96 hours
Protocol: To determine an accurate measure of the number of viable cells, cell numbers were also determined.

[4] = high-throughput screening system

Row | Compound | EC50 (S5 cells [1]) [µM] | Emax (S5 cells [1]) [%] | other results
1 | Clc1ccc(C(c2ccc(Cl)cc2)n2cc[n+](CC(OCc3ccc(Cl)cc3Cl)c3ccc(Cl)cc3Cl)c2)cc1 (centres unmarked) [Calmidazolium, reference compound] | – | – | concentration improving growth of S5 cells (as low as) (S5 cells [1]; [4]): 215 nM; growth of S5 cells (S5 cells [1]; [4]): improved the growth of S5 cells
2 | CN(C)CCC=C1c2ccccc2CCc2ccccc21 [Compound 1] | 3 | 30 | –
3 | CNCCCN1c2ccccc2CCc2ccccc21 [Compound 2] | 3 | 30 | –
4 | CN(C)CC/C=C1/c2ccccc2COc2ccccc21 [Compound 3] | 5 | 60 | –
5 | CN(C)CCCN1c2ccccc2CCc2ccccc21 [Compound 4] | 4 | 35 | –
6 | CN1CCN2c3ccccc3Cc3ccccc3C2C1 (centres unmarked) [Compound 5] | 5 | 75 | cell toxicity (S5 cells [2]): low cell toxicity
7 | CC(CN(C)C)CN1c2ccccc2CCc2ccccc21 (centres unmarked) [Compound 6] | 2.5 | 50 | –
8 | CN(C)CCC=C1c2ccccc2C=Cc2ccccc21 [Compound 7] | 3 | 45 | –
9 | CSc1ccc2c(c1)C(N1CCN(C)CC1)Cc1ccccc1S2 (centres unmarked) [Compound 8] | < 1 | 25 | –
10 | CN(C)CCCN1c2ccccc2CCc2ccc(Cl)cc21 [Compound 9] | 1.5 | 50 | –
11 | CN1CCN(C2=Nc3cc(Cl)ccc3Nc3ccccc32)CC1 [Compound 10] | 3 | 30 | –
12 | CN(C)CCCN1c2ccccc2Sc2ccccc21 [Compound 11] | 2.5 | 60 | –
13 | CC(CN1c2ccccc2Sc2ccccc21)N(C)C (centres unmarked) [Compound 12] | 2.5 | 75 | increase in cell number over control cells treated with DMSO alone (S5 cells [3]): three to four-fold increase in cell number
14 | CC(CN(C)C)CN1c2ccccc2Sc2ccccc21 (centres unmarked) [Compound 14] | 2.5 | 40 | –
15 | CCN(CC)C(C)CN1c2ccccc2Sc2ccccc21 (centres unmarked) [Compound 15] | 2 | 70 | –
16 | CCC(=O)c1ccc2c(c1)N(CC(C)N(C)C)c1ccccc1S2 (centres unmarked) [Compound 16] | 1 | 60 | highest concentration at which there is no apparent cell toxicity (S5 cells [2]): 4 µM
17 | CSc1ccc2c(c1)N(CCC1CCCCN1C)c1ccccc1S2 (centres unmarked) [Compound 17] | 1.5 | 80 | highest concentration at which there is no apparent cell toxicity (S5 cells [2]): 4 µM; increase in cell number over control cells treated with DMSO alone (S5 cells [3]): three to four-fold increase in cell number
18 | CN(C)CCCN1c2ccccc2Sc2ccc(C(F)(F)F)cc21 [Compound 18] | 1.5 | 25 | –
19 | CN(C)CC/C=C1\c2ccccc2Sc2ccc(Cl)cc21 [Compound 19] | 2 | 30 | –
20 | CN(C)CCCN1c2ccccc2Sc2ccc(Cl)cc21 [Compound 20] | 1 | 35 | highest concentration at which there is no apparent cell toxicity (S5 cells [2]): 4 µM
21 | CN1CCC(OC(c2ccccc2)c2ccccc2)CC1 [Compound 21] | – | 55 | –
22 | O=C(CCCN1CC=C(n2c(=O)[nH]c3ccccc32)CC1)c1ccc(F)cc1 [Compound 22] | – | 50 | –
23 | CCN1CCCC(OC(=O)C(c2ccccc2)c2ccccc2)C1 (centres unmarked) [Compound 23] | – | 50 | –
24 | CN1Cc2c(N)cccc2C(c2ccccc2)C1 (centres unmarked) [Compound 24] | – | 35 | –
25 | COC(=O)[C@H](c1ccccc1Cl)N1CCc2sccc2C1 [Compound 25] | 7 | 100 | –
26 | Cc1nc2sccn2c(=O)c1CCN1CCC(=C(c2ccc(F)cc2)c2ccc(F)cc2)CC1 [Compound 27] | – | 80 | –
27 | O=C(CCCN1CCC2(CC1)C(=O)NCN2c1ccccc1)c1ccc(F)cc1 [Compound 29] | – | 140 | –
28 | COc1ccc(S(=O)(=O)Nc2ccccc2CN(C)CC=Cc2ccc(Cl)cc2)cc1 [KN-92, 2-[N-(4-Methoxybenzenesulfonyl)] amino-N-(4-chlorocinnamyl)-N-methylbenzylamine, reference compound] | – | – | growth of S5 cells (S5 cells [1]; [4]): did not affect the growth of S5 cells
29 | COc1ccc(S(=O)(=O)N(CCO)c2ccccc2CN(C)CC=Cc2ccc(Cl)cc2)cc1 [KN-93, reference compound] | – | – | growth of S5 cells (S5 cells [1]; [4]): improved the growth of S5 cells
